Test results from patent publication US20020071842A1, “Soluble CD1 compositions and uses thereof” (priority 2000, published 2002).

Assays:
Assay in all cases: Plate-bound mCD1d fusion protein hybridoma stimulation assay (IL-2 ELISA)
Format in all cases: cell-based, mouse
KT/12 hybridoma = conditions: KT/12 NKT hybridoma; plate-bound mCD1d-IgGFc2a fusion protein preincubated with lipid antigen
Excerpt: (§1) The CD1d-restricted T cell clones 24.7, 24.8, 24.9 (NKT cell) and 14S.6, 14S.7, 14S.10, and 14S.15 (diverse TCRs) were all derived from spleen of wild type C57BL/6 mice, as described previously (Behar, S. M. et al., J. Immunol., 162:161-7 (1999)). To generate T cell hybridomas, the activated T cells were fused to the aminopterin-sensitive BW5147 αβTCR^− thymoma cell line using PEG1500, and hybrids were selected in HAT medium (Life Technologies, Gaithersburg, Md.). Resulting TT hybridomas were tested for recognition of RMA-S cells transfected with mCD1D1 compared to untransfected RMA-S cells, as described below. […] The hybridomas are distinguished from the original T cell clones by the addition of a letter to their names. The KT/7, KT/12, KT/22, and KT/23 and Vβ/9 NKT cell hybridomas were derived from NK1.1^+ T cells enriched from spleen of C57BL/6 mice by depletion of CD8+ T cells, naive T cells, and B cells by mAbs (anti-B220, CD8, and CD62L, or anti-CD8α, CD8β, and Me114) bound to magnetic microbeads, or to plastic. The purified cells were stimulated either by the anti-CD3 KT3 mAb (KT/7, KT/12, KT/22, KT/23), or by an anti-Vβ8.2 mAb (Vβ/9), and addition of IL-2 or IL-2 and IL-7. After 4-5 days of culture the cells were fused with BW5147 thymoma cells. The VII68, VIII24, XVI9, and XV104 diverse TCR hybridomas were generated from CD4^+ T cells from class 110 mice, as described previously (Cardell, S. et al., J. Exp. Med., 182:993-1004 (1995)). The DN32D3 hybridoma was derived as described (Lantz, O., and Bendelac, A., J. Exp. Med., 180:1097-106 (1994).
(§2) To test for recognition of the mCD1d fusion protein and purified or synthetic antigens, 96 well protein A coated plates (Pierce Chemical Company) were incubated with 400-600 ng/well of the fusion protein or a negative control IgG2a antibody, RPC5.4 or UPC10, in PBS, at pH 7.2. Lipid antigens were diluted into PBS and added where specified at the indicated molar ratio of antigen to fusion protein, (when not specified the ratio was 40:1). Protein A plates containing the fusion protein and antigen were incubated 24-48 hr at 37° C., then washed three times with 200 μl/well sterile PBS, pH 7.2, and two times with 200 μl/well sterile culture medium (containing RPMI supplemented with L-glutamine and penicillin/streptomycin, Life Technologies, Gaithersburg, Md., and 10% bovine calf serum, Hyclone Laboratories, Logan, Utah). For assays in which the PI was phospholipase treated, it was first diluted into 0.01M Tris, 0.15M NaCl, pH 7.5, containing 0.25 U PI-specific phospholipase C or 0.5 U phospholipase D (Sigma, St Louis, Mo.), and incubated 30 minutes at room temperature, then added to the protein A plates as described above. For assays in which the pH was varied during antigen incubation with the fusion protein, the fusion protein and α-GalCer were diluted into a 20 mM citrate/phosphate buffer of the specified pH, which contained 0.15 M NaCl, and after incubation, the samples were neutralized by addition of 1M Tris, pH 7.5. Hybridoma cells were added to fusion protein/antigen treated plates at a concentration of 1×10^5 cells/well, in a total volume of 150 μl/well. Assays were performed using 2-6 replicate wells. In some assays, an anti-mCD1d blocking antibody (19G11) was included at a final concentration of 20 μg/ml. The plates were incubated at 37° C. for 16-20 hr, and culture supernatants were withdrawn for analysis. Each experiment was performed at least three times.
(§3) IL-2 secreted in the hybridoma stimulation assays was quantitated in a double antibody sandwich ELISA, by comparison to a standard curve of purified murine IL-2 (Pharmingen, San Diego, Calif.). Hybridoma plate stimulation supernatants (used either neat or diluted) and serially diluted IL-2 standards were added to 96 well ELISA plates coated with a rat anti-mouse IL-2 capture antibody (Pharmingen). […]

VII68 hybridoma = conditions: VII68 diverse TCR hybridoma; plate-bound mCD1d-IgGFc2a fusion protein preincubated with lipid antigen
Excerpt: as §1, §2, §3

Vβ/9 hybridoma = conditions: Vβ/9 NKT hybridoma; plate-bound mCD1d-IgGFc2a fusion protein preincubated with lipid antigen
Excerpt: as §1, §2, §3

KT/7 hybridoma = conditions: KT/7 NKT hybridoma; plate-bound mCD1d-IgGFc2a fusion protein preincubated with lipid antigen
Excerpt: as §1, §2, §3

14S.15.A hybridoma = conditions: 14S.15.A diverse TCR hybridoma; plate-bound mCD1d-IgGFc2a fusion protein preincubated with lipid antigen
Excerpt: as §1, §2, §3

XV19 hybridoma = conditions: XV19 diverse TCR hybridoma; plate-bound mCD1d-IgGFc2a fusion protein preincubated with lipid antigen
Excerpt: as §1, §2, §3

14S.6.A hybridoma = conditions: 14S.6.A diverse TCR hybridoma; plate-bound mCD1d-IgGFc2a fusion protein preincubated with lipid antigen
Excerpt: as §1, §2, §3

VIII24 hybridoma = conditions: VIII24 diverse TCR hybridoma; plate-bound mCD1d-IgGFc2a fusion protein preincubated with lipid antigen
Excerpt: as §1, §2, §3

DN32D3 hybridoma = conditions: DN32D3 NKT hybridoma; plate-bound mCD1d-IgGFc2a fusion protein preincubated with lipid antigen
Excerpt: as §1, §2, §3

XV104 hybridoma = conditions: XV104 diverse TCR hybridoma; plate-bound mCD1d-IgGFc2a fusion protein preincubated with lipid antigen
Excerpt: as §1, §2, §3

24.9.E hybridoma = conditions: 24.9 E NKT hybridoma; plate-bound mCD1d-IgGFc2a fusion protein preincubated with lipid antigen
Excerpt: as §1, §2, §3

24.7.C hybridoma = conditions: 24 7.C NKT hybridoma; plate-bound mCD1d-IgGFc2a fusion protein preincubated with lipid antigen
Excerpt: as §1, §2, §3

14S.7.N hybridoma = conditions: 14S.7.N diverse TCR hybridoma; plate-bound mCD1d-IgGFc2a fusion protein preincubated with lipid antigen
Excerpt: as §1, §2, §3

14S.10.C hybridoma = conditions: 14S.10 C diverse TCR hybridoma; plate-bound mCD1d-IgGFc2a fusion protein preincubated with lipid antigen
Excerpt: as §1, §2, §3

KT/23 hybridoma = conditions: KT/23 NKT hybridoma; plate-bound mCD1d-IgGFc2a fusion protein preincubated with lipid antigen
Excerpt: as §1, §2, §3

KT/22 hybridoma = conditions: KT/22 NKT hybridoma; plate-bound mCD1d-IgGFc2a fusion protein preincubated with lipid antigen
Excerpt: as §1, §2, §3

24.8.A hybridoma = conditions: for IL-2 secretion: 24.8 A NKT hybridoma, plate-bound mCD1d-IgGFc2a fusion protein preincubated with lipid antigen
Excerpt: as §1, §2
IL-2 secreted in the hybridoma stimulation assays was quantitated in a double antibody sandwich ELISA, by comparison to a standard curve of purified murine IL-2 (Pharmingen, San Diego, Calif.). Hybridoma plate stimulation supernatants (used either neat or diluted) and serially diluted IL-2 standards were added to 96 well ELISA plates coated with a rat anti-mouse IL-2 capture antibody (Pharmingen).

| Substance | IL-2 secretion (KT/12 hybridoma) | IL-2 secretion (VII68 hybridoma) | IL-2 secretion (Vβ/9 hybridoma) | IL-2 secretion (KT/7 hybridoma) | IL-2 secretion (14S.15.A hybridoma) | IL-2 secretion (XV19 hybridoma) | IL-2 secretion (14S.6.A hybridoma) | IL-2 secretion (VIII24 hybridoma) | IL-2 secretion (DN32D3 hybridoma) | IL-2 secretion (XV104 hybridoma) | IL-2 secretion (24.9.E hybridoma) | IL-2 secretion (24.7.C hybridoma) | IL-2 secretion (14S.7.N hybridoma) | IL-2 secretion (14S.10.C hybridoma) | IL-2 secretion (KT/23 hybridoma) | IL-2 secretion (KT/22 hybridoma) | IL-2 secretion (24.8.A hybridoma) | IL-2 response to mCD1d fusion protein pre-treated with purified or synthetic lipid (24.8.A hybridoma; 24.8.A hybridoma, compared to untreated or buffer treated fusion protein) |
| --- | --- | --- | --- | --- | --- | --- | --- | --- | --- | --- | --- | --- | --- | --- | --- | --- | --- | --- |
| disialoganglioside [GD1a] | 0 (A “0” indicates a mean of less than 50 pg/ml IL-2 was secreted) | 0 (A “0” indicates a mean of less than 50 pg/ml IL-2 was secreted) | 0 (A “0” indicates a mean of less than 50 pg/ml IL-2 was secreted) | 0 (A “0” indicates a mean of less than 50 pg/ml IL-2 was secreted) | 0 (A “0” indicates a mean of less than 50 pg/ml IL-2 was secreted) | 0 (A “0” indicates a mean of less than 50 pg/ml IL-2 was secreted) | 0 (A “0” indicates a mean of less than 50 pg/ml IL-2 was secreted) | 0 (A “0” indicates a mean of less than 50 pg/ml IL-2 was secreted) | 0 (A “0” indicates a mean of less than 50 pg/ml IL-2 was secreted) | 0 (A “0” indicates a mean of less than 50 pg/ml IL-2 was secreted) | 0 (A “0” indicates a mean of less than 50 pg/ml IL-2 was secreted) | 0 (A “0” indicates a mean of less than 50 pg/ml IL-2 was secreted) | 0 (A “0” indicates a mean of less than 50 pg/ml IL-2 was secreted) | 0 (A “0” indicates a mean of less than 50 pg/ml IL-2 was secreted) | 0 (A “0” indicates a mean of less than 50 pg/ml IL-2 was secreted) | 0 (A “0” indicates a mean of less than 50 pg/ml IL-2 was secreted) | 0 (A “0” indicates a mean of less than 50 pg/ml IL-2 was secreted) |  |
| monogalactosyl diglyceride [MGDG] | 0 (A “0” indicates a mean of less than 50 pg/ml IL-2 was secreted) | 0 (A “0” indicates a mean of less than 50 pg/ml IL-2 was secreted) | 0 (A “0” indicates a mean of less than 50 pg/ml IL-2 was secreted) | 0 (A “0” indicates a mean of less than 50 pg/ml IL-2 was secreted) | 0 (A “0” indicates a mean of less than 50 pg/ml IL-2 was secreted) | 0 (A “0” indicates a mean of less than 50 pg/ml IL-2 was secreted) | 0 (A “0” indicates a mean of less than 50 pg/ml IL-2 was secreted) | 0 (A “0” indicates a mean of less than 50 pg/ml IL-2 was secreted) | 0 (A “0” indicates a mean of less than 50 pg/ml IL-2 was secreted) | 0 (A “0” indicates a mean of less than 50 pg/ml IL-2 was secreted) | 0 (A “0” indicates a mean of less than 50 pg/ml IL-2 was secreted) | 0 (A “0” indicates a mean of less than 50 pg/ml IL-2 was secreted) | 0 (A “0” indicates a mean of less than 50 pg/ml IL-2 was secreted) |  | 0 (A “0” indicates a mean of less than 50 pg/ml IL-2 was secreted) | 0 (A “0” indicates a mean of less than 50 pg/ml IL-2 was secreted) | + (“+” indicates 50-250 pg/ml) |  |
| phosphatidylglycerol [PG] | 0 (A “0” indicates a mean of less than 50 pg/ml IL-2 was secreted) | 0 (A “0” indicates a mean of less than 50 pg/ml IL-2 was secreted) | 0 (A “0” indicates a mean of less than 50 pg/ml IL-2 was secreted) | 0 (A “0” indicates a mean of less than 50 pg/ml IL-2 was secreted) | + (“+” indicates 50-250 pg/ml) | 0 (A “0” indicates a mean of less than 50 pg/ml IL-2 was secreted) | + (“+” indicates 50-250 pg/ml) | 0 (A “0” indicates a mean of less than 50 pg/ml IL-2 was secreted) | 0 (A “0” indicates a mean of less than 50 pg/ml IL-2 was secreted) | 0 (A “0” indicates a mean of less than 50 pg/ml IL-2 was secreted) | + (“+” indicates 50-250 pg/ml) | 0 (A “0” indicates a mean of less than 50 pg/ml IL-2 was secreted) | + (“+” indicates 50-250 pg/ml) |  | 0 (A “0” indicates a mean of less than 50 pg/ml IL-2 was secreted) | 0 (A “0” indicates a mean of less than 50 pg/ml IL-2 was secreted) | ++ (“++” indicates 250-1000 pg/ml) | dose dependent responses |
